Source: ChEMBL document CHEMBL4422622, “Identification of Mineralocorticoid Receptor Modulators with Low Impact on Electrolyte Homeostasis but Maintained Organ Protection” (J Med Chem, 2019)

Assays:
[1] = Octanol-water partitioning co-efficient, log D of the compound at pH 7.4 by LC/MS/MS analysis; type: physicochemical
[2] = Intrinsic clearance in human hepatocytes assessed per million cells at 1 uM measured up to 120 mins in presence of NADPH by LC-MS/MS analysis; type: ADME, cell-based, Hepatocyte; details: read-out: CLH
[3] = system: Rattus norvegicus; assay: Induction of hyperkalemia in Sprague-Dawley rat fed on low salt diet for 72 hrs assessed as increase in Na+/K+ ratio in urine administered via oral gavage after 8 hrs; type: organism-based; details: in vivo
[4] = system: Rattus norvegicus; assay: Induction of hyperkalemia in Sprague-Dawley rat fed on low salt diet for 72 hrs assessed as increase in eplerenone-mediated Na+/K+ ratio in urine administered via oral gavage co-administered with after 8 hrs; type: organism-based; details: in vivo
[5] = Fraction unbound in Han Wistar rat plasma at 1 uM after 4 hrs by LC/MS/MS analysis; type: ADME, cell-free
[6] = Intrinsic clearance in Han Wistar rat hepatocytes assessed per million cells at 1 uM after 4 hrs by LC/MS/MS analysis; type: ADME, cell-based, Hepatocyte; details: read-out: CLH
[7] = Volume of distribution at steady state in Han Wistar rat at 1.2 mg/kg, iv by LC-MS/MS analysis; type: ADME, organism-based; details: in vivo, read-out: Vdss
[8] = Clearance in Han Wistar rat at 1.2 mg/kg, iv by LC-MS/MS analysis; type: ADME, organism-based; details: in vivo
[9] = Terminal half life in Han Wistar rat at 1.2 mg/kg, iv by LC-MS/MS analysis; type: ADME, organism-based; details: in vivo, read-out: beta t1/2 (converted)
[10] = Oral bioavailability in Han Wistar rat at 48 mg/kg by LC-MS/MS analysis; type: ADME, organism-based; details: in vivo
[11] = target: T1, Mineralocorticoid receptor (Homo sapiens, UniProt P08235)
T1 sequence (P08235 whole entry): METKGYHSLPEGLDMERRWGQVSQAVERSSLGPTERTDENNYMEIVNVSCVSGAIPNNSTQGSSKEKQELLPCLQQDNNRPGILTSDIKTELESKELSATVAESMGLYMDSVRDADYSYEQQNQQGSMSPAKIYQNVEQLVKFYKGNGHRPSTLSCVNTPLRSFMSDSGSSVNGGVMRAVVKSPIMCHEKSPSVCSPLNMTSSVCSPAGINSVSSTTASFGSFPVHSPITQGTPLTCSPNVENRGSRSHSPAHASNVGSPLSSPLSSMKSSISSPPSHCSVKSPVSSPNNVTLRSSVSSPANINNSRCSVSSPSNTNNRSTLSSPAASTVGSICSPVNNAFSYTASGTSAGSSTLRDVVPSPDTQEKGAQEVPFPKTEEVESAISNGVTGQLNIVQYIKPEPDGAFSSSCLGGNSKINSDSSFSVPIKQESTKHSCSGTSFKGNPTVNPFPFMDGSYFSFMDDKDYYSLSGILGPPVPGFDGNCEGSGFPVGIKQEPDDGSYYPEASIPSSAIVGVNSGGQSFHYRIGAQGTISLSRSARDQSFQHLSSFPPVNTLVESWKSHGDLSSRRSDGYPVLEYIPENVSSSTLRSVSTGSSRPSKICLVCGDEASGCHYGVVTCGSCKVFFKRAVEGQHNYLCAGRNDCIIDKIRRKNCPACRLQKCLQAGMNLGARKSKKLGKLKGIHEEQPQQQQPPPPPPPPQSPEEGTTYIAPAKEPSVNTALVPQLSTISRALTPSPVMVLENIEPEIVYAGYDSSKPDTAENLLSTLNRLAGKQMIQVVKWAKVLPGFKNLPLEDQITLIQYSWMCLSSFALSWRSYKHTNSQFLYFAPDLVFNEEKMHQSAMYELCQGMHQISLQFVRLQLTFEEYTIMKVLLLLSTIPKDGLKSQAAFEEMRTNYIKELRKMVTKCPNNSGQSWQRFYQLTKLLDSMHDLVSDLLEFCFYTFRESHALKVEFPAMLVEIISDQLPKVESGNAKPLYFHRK
Description: Modulation activity at human mineralocorticoid receptor in human EA.hy926 cells assessed as induction of nuclear translocation of mineralocorticoid receptor in absence of aldosterone by receptor translocation assay

[12] = target: T1, Mineralocorticoid receptor; remark: listed apart in the source
Description: Displacement of [3H]-aldosterone to human mineralocorticoid receptor LBD by radiometric binding assay

[13] = target: T2, Glucocorticoid receptor (Homo sapiens, UniProt P04150)
T2 sequence (P04150 whole entry): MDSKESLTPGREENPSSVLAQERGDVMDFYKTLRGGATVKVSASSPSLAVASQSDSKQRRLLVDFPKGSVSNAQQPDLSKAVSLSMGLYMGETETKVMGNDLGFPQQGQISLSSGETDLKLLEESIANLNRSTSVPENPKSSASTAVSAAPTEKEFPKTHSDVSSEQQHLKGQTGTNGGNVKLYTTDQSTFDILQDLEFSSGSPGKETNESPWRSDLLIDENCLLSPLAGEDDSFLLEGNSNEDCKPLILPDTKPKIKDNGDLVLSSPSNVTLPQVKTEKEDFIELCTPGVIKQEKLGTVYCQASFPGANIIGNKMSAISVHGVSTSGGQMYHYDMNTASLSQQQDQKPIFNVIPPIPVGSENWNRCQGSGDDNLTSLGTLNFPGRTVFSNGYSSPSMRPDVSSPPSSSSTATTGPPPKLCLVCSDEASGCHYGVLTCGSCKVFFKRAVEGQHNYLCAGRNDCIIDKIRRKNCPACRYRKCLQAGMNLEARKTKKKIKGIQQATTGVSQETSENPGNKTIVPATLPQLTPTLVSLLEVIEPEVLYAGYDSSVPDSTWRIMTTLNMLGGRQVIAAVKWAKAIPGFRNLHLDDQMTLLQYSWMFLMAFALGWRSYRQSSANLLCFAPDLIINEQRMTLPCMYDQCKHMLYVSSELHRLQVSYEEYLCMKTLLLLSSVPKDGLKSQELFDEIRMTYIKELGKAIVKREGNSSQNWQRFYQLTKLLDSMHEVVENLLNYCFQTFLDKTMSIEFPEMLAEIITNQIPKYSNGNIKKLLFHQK
Description: Binding affinity to recombinant human GR LBD by fluormone GS red-fluorescence polarization assay

[14] = target: T1, Mineralocorticoid receptor; remark: listed apart in the source
Description: Antagonist activity at gal4-fused human mineralocorticoid receptor LBD expressed in UAS-MR-bla HEK293 cells by luciferase reporter gene assay

[15] = target: T3, Mineralocorticoid receptor (Rattus norvegicus, UniProt P22199)
T3 sequence (P22199 whole entry): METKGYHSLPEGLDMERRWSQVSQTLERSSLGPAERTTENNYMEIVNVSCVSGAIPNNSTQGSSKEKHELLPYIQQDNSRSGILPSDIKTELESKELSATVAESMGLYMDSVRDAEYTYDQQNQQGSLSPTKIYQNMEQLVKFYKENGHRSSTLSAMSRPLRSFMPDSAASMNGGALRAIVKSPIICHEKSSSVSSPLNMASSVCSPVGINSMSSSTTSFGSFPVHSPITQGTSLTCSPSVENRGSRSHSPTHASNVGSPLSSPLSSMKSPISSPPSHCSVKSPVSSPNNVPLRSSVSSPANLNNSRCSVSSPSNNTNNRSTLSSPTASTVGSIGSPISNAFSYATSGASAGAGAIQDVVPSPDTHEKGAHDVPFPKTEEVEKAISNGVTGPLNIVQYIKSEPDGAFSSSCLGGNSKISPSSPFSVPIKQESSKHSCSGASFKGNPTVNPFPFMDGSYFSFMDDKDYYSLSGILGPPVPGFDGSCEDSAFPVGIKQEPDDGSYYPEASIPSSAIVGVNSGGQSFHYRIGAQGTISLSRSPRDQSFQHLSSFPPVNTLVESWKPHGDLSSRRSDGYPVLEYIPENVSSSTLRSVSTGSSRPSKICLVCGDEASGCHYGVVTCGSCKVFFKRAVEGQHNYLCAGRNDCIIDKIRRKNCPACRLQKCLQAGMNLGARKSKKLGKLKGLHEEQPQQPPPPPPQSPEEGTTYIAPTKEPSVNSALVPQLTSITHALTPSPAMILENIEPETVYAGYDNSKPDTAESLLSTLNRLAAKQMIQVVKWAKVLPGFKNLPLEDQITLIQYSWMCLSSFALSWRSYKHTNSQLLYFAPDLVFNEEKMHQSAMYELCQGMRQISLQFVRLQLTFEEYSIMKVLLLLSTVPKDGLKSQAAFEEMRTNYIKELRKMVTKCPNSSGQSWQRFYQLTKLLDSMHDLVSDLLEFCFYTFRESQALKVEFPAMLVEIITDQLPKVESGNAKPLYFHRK
Description: Antagonist activity at gal4-fused rat mineralocorticoid receptor LBD in expressed in human U2OS cells by luciferase reporter gene assay

[16] = target: T1, Mineralocorticoid receptor; remark: listed apart in the source
Description: Modulation activity at human mineralocorticoid receptor in human EA.hy926 cells assessed as blocking of nuclear translocation of mineralocorticoid receptor in presence of aldosterone by receptor translocation assay

- logD [1]: 1.8
- hepatocyte CLint at 1 µM [2]: 4.6 µL/min/1e6 cells
- fraction unbound at 4 h, 1 µM [5]: 0.34
- hepatocyte CLint at 1 µM [6]: 20 µL/min/1e6 cells
- Vd [7]: 0.8 L/kg
- clearance [8]: 1.92 L/h/kg
- half-life [9]: 18 min
- bioavailability [10]: 45%
- EC50 [11]: > 10 µM
- Ki [12]: 0.1 µM
- Ki [13]: 0.158 µM
- IC50 [14]: 1 µM
- IC50 [15]: 0.0794 µM
- IC50 [16]: 0.1 µM
SMILES: CNC(=O)C[C@H]1COc2ccc(Cl)cc2N1C(=O)c1ccc2c(c1)NC(=O)CO2
- Activity [3]: Toxic
- Activity [4]: Toxic
